Experimental findings from ChEMBL document CHEMBL1136287, “Synthesis and testing of novel phenyl substituted side-chain analogues of classical cannabinoids” (Bioorg Med Chem Lett, 2003) are described below.

For assay [1], the target named is T1, Cannabinoid receptor 1 (Homo sapiens, UniProt P21554). Put plainly: Binding affinity towards Cannabinoid receptor 1.
In assay [2] the target is T2, Cannabinoid receptor 2 (Homo sapiens, UniProt P34972). Put plainly: Binding affinity towards Cannabinoid receptor 2.
T2 sequence (P34972 whole entry): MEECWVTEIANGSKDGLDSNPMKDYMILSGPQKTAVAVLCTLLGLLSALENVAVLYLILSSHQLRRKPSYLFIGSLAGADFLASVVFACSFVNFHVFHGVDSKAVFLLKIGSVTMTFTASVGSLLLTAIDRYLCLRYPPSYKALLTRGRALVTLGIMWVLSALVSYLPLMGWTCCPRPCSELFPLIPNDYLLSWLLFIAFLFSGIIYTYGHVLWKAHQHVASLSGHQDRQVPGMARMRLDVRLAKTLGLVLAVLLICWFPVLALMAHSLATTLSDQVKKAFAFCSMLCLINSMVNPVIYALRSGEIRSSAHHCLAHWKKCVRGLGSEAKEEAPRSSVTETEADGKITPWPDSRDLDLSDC
Assay [3] deals with T2, Cannabinoid receptor 2. Put plainly: Binding affinity towards Cannabinoid receptor 2 using CP-55940 as radioligand in HEK293 EBNA cells. The assay is classed as cell-based.
Assay [4] addresses T1, Cannabinoid receptor 1. Put plainly: Binding affinity towards Cannabinoid receptor 1 using CP-55940 as radioligand in HEK293 EBNA cells. The class given is cell-based.

T1 sequence (P21554 whole entry): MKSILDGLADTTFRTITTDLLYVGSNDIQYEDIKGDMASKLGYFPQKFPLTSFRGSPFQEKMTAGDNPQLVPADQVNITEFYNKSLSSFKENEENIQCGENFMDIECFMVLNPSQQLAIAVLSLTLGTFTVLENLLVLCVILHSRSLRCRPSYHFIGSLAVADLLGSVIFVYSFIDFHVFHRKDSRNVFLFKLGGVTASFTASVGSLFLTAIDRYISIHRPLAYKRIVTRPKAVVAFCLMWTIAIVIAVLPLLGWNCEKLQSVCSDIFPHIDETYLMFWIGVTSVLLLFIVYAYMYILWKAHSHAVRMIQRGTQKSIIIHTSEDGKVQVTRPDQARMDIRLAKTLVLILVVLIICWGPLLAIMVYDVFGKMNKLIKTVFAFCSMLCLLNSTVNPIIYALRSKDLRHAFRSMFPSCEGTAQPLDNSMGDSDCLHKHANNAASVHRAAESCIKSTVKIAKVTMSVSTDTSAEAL

Consider `CC1=CC[C@@H]2[C@@H](C1)c1c(O)cc(C3(C4CCCCC4)SCCS3)cc1OC2(C)C`, for which the Ki came to 1.86 nM on Cannabinoid receptor 1 [1] and 1.05 nM on Cannabinoid receptor 2 [2].

On to `CC1=CC[C@@H]2[C@@H](C1)c1c(O)cc(C3(c4ccccc4)SCCS3)cc1OC2(C)C`, for which the Ki is 17.6 nM on Cannabinoid receptor 2 [3] and 17.3 nM on Cannabinoid receptor 1 [4].

Take `CC1=CC[C@@H]2[C@@H](C1)c1c(O)cc(C(C)(C)c3ccccc3)cc1OC2(C)C`: the Ki came out at 0.91 nM on Cannabinoid receptor 2 [3] and 12.3 nM at Cannabinoid receptor 1 [4].

As to `CC1=CC[C@@H]2[C@@H](C1)c1c(O)cc(C(C)(C)C3CCCCC3)cc1OC2(C)C`, the values for the Ki at Cannabinoid receptor 2 [3] and on Cannabinoid receptor 1 [4] were 0.65 nM and 0.57 nM, respectively.

As to `CC1=CC[C@@H]2[C@@H](C1)c1c(O)cc(Cc3ccccc3)cc1OC2(C)C`, the Ki was 85.9 nM at Cannabinoid receptor 2 [3] and 67.6 nM at Cannabinoid receptor 1 [4].

One may read the Ki as a measure of affinity in units of concentration, obtained from inhibition or displacement.
